Earlier results in patent EP2839829B1 (Korea United Pharm. Inc., priority 2012, dated 2013).

Conditions: in the body

half life: about 1 hr
SMILES: OC[C@@H](O)CN1CCN(c2ccccc2)CC1 [levodropropizine]
